Laboratory results from patent publication US20090324682A1 (priority 2004, published 2009).

Legend:
prostate tumours = details: maximum non-lethal systemic dose, cited from earlier work
[1] = Maximal tolerated dose of Rhodamine 123 delivered intra-venously in man; assay type: in vivo; details: 70 kg patient
Method: Because inhibitors of oxidative phorphorylation are extremely toxic to a subject in the doses needed for efficacy via the systemic route, such inhibitors have been largely overlooked for effective treatment of conditions such as cancer. […] It is also known that the maximal tolerated dose of Rhodamine 123 delivered intra-venously in man is 95 mg/m^2. For a 70 kg patient, the maximum dose of systemically delivered rhodamine is about 150 mg. […] There was an accumulation of rhodamine in the prostate of the patients, but it was not sufficient to provoke a significant response.

[2] = system: Human smooth muscle cells (SMC); test: Proliferation of human smooth muscle cell cultures treated with rhodamine 123 and/or FDG; assay type: cell-based
Method: Human smooth muscle cells (SMC) were treated with rhodamine 123 and/or with FDG.
Three levels of Rhodamine 123 concentration were used first: 0.05, 1 and 2.5 mg/ml.
A combined composition of FDG and Rhodamine at various dosages were evaluated on the same human SMC cultures. The doses (FDG/rhodamine in mg/ml) were as follows: […]

In the case of rhodamine 123, the “effect on prostate tumours” value (prostate tumours) is listed as “no useful effect”, the “rhodamine in the prostate of the patients” value (prostate tumours; not sufficient to provoke a significant response) is listed as “accumulation” and the “maximum dose of systemically delivered rhodamine” value [1] is listed as “about 150 mg”. The “concentration enough to stop smooth muscle cell proliferation” value [2] was 5 µg/mL, the “proliferation rates of SMC compared to non rhodamine treated cells” value ([2]; Rhodamine 123 0.05 mg/ml) was 90+21.6% and the “proliferation rates of SMC compared to non rhodamine treated cells” value ([2]; Rhodamine 123 1 mg/ml) was 51.2 ± 10.7%. The “proliferation rates of SMC compared to non rhodamine treated cells” value ([2]; Rhodamine 123 2.5 mg/ml) was 7.3 ± 5.1% and the SMC proliferation ([2]; higher rhodamine concentrations (above 2.5 mg/ml)) was “totally suppressed”.
